Assay results taken from patent publication US9643995B2, “Triterpene glycoside and triterpene compositions and methods of using same” (Research Foundation of the City University of New York, priority 2013, dated 2017).
Converted amounts (≈) assume the structure as drawn.

Columns and labels:
calcium channels = assay: Calcium release from cells; format: cell-based; details: low concentrations (100 nM); stated as believed mode of action
MDA-MB-453 cells [1] = assay: Apoptosis: caspase 3 activity; format: cell-based, human; details: actein 2 μg/ml, Herceptin 16 μg/ml, 48 h
MDA-MB-453 cells [2] = assay: Apoptosis: DNA fragmentation; format: cell-based, human; details: actein 2 μg/ml, Herceptin 16 μg/ml, 48 h
MCF10F = assay: Growth inhibition of nonmalignant mammary epithelial cells by actein; format: cell-based, human
[3] = rat, in vivo, 35.7 mg/kg; cited from earlier work
Her2 = assay: Western blot analysis of Her2 protein level; format: cell-based; details: 40 μg/ml, 24 h, normalized to β-acetin
Source text: (§1) Effect of actein on the level of Her2 protein: The effect of actein on the level of Her2 and activated Her2 (p-Her2) protein was examined using Western blot analysis. […] The results validate an effect of actein on the Her2 pathway.

activated Her2 (p-Her2) = assay: Western blot analysis of activated Her2 protein level; format: cell-based; details: 40 μg/ml, 24 h, normalized to β-acetin
Source text: as §1

## CC(=O)O[C@@H]1C[C@@]23C[C@@]24CC[C@H](O[C@@H]2OC[C@@H](O)[C@H](O)[C@H]2O)C(C)(C)[C@@H]4CC[C@H]3[C@]2(C)C[C@@H]3O[C@]4(C[C@@H](C)[C@@H]3[C@@]12C)O[C@H](O)[C@@]1(C)O[C@@H]41 [actein, Actein]
Calcium channels
  effect on calcium channels: immediately opens calcium channels and releases calcium from cells
MDA-MB-453 cells [1]
  caspase 3 activity: 1.29 fold relative to control
MDA-MB-453 cells [2]
  DNA fragmentation: 0.89 fold relative to control
MCF10F
  IC50: 42 µg/mL (≈ 62.1 µM)
[3]
  peak serum level: about 2.4 μg/ml
  time of peak serum level: 6 h
Her2
  level of Her2 protein: 0.72 fold
Activated Her2 (p-Her2)
  level of p-Her2 protein: 0.37 fold
